Reference: patent US20220226321A1, “INHIBITOR OF MNK FOR THE TREATMENT OF NEUROPATHIC PAIN” (Board of Regents, The University of Texas System, priority 2019, published 2022)

Key:
[1] = tested on: cultured mouse DRG neurons; experiment: Western blot of cultured primary DRG neurons treated with eFT508; type: cell-based
DRG = experiment: measurement of protein synthesis by puromycin incorporation in DRG; type: in vivo, mouse; conditions: single dose 10 mg/kg
Protocol: Measurement of Protein Synthesis. Eight to 12-week-old wild-type and eiF4E^S209A mice were injected with puromycin (10 mg/kg via the intraperitoneal route, i.p.), and 1 hr later, DRGs were collected and processed for Western blotting using anti-puromycin monoclonal antibody (PMY-2A4, KeraFast). […] Protein synthesis was determined by measuring total lane signal from 250-15 KDa and subtracting unlabeled protein control. Signals were quantified using Image Lab (BioRad, Hercules, Calif.).

DRG neurons = experiment: whole-cell patch clamp of cultured DRG neurons treated with IL-6 and eFT508; type: cell-based, mouse
Protocol: Phosphorylation of the 5′ cap-binding protein eIF4E by MAPK interacting kinases MNK1/2 is important for nociceptor sensitization and the development of chronic pain. IL-6 induced DRG nociceptor excitability is attenuated in mice lacking eIF4E phosphorylation, in MNK1/2^−/− mice and by the nonselective MNK1/2 inhibitor cercosporamide. […] Dorsal root ganglion (DRG) neurons were cultured from male and female ICR mice, 4-7 weeks old. […] Whole-cell patch clamp recordings were done on small diameter neurons (20-30 pF) to measure membrane excitability in response to ramp depolarization. […] These findings are consistent with a model wherein MNK-eIF4E signaling controls the translation of signaling factors that regulate T-type VGCCs in response to IL-6 treatment.

With Cc1cc(Nc2cc(N)ncn2)c(=O)n2c1C(=O)NC21CCCCC1 [eFT508, Tomivosertib] the RagA protein level ([1]; 1 μM for 1 hr) was “decrease”, the “level of eIF4E phosphorylation” value ([1]; 0.1 and 1 μM, 1 hr) was “significantly reduced” and the other signaling pathways ([1]; 0.1 and 1 μM, 1 hr) was “without affecting other signaling pathways”. For the same compound, the “reduction of eIF4E phosphorylation” value ([1]; cultured DRGs neurons) was 90%, the “general translation (puromycin incorporation in the DRG)” value (DRG) was “not influenced” and the “latency to the first action potential in the ramp protocol” value (DRG neurons; IL-6, eFT508 pretreatment) was “rescued”. For the same compound, the “action potential firing in response to ramp depolarization” value (DRG neurons; one hr IL-6, eFT508 pretreatment followed by IL-6) was “blocked”.
